Laboratory results published in paper PMC7503712, “Enterovirus Inhibition by Hinged Aromatic Compounds with Polynuclei” (Molecules, 2020).

Columns and labels:
[1] = tested on: EV71 strain BrCr; experiment: Antiviral activity on the replication of EV71 strain BrCr in RD cells; format: cell-based, Enterovirus 71; details: for EC50: Enterovirus A, virus replication inhibited by 50%
Procedure: (§1) The selectivity index (SI = CC50/EC50), a measure for the therapeutic window of the compound in the assay system, was then calculated. The antiviral effect of hinged aromatic compounds that adversely affected the host cell metabolism was likely as a result of a pleiotropic or non-specific effect on the host cell. […].
(§2) The biological activity of the 18 hinged aromatic compounds against EV71 was evaluated in a cell-based assay with live enteroviruses. The EV71 strains were originated from Chang Gung University of Taiwan. The rhabdomyosarcoma (RD) cells, grown for 3–4 days in tissue culture flasks, were harvested and seeded in MEM Rega 3 medium (Gibco, Merelbeke, Belgium) supplemented with fetal bovine serum (FBS, 2.0%, Integro, Merelbeke, Belgium), 200 mM L-glutamine (Gibco, Merelbeke, Belgium), and aqueous 7.5% NaHCO3 (Gibco, Merelbeke, Belgium). The microtitre plates were incubated overnight to produce a non-confluent cell monolayer. Then assay plates were transferred to a liquid handling platform, on which a sample dilution series was prepared at a sample concentration of 0.100 mg/mL or lower in DMSO. After preparation of the hinged compound dilution series, virus was added to the wells with a dilution optimized for each EV71 strain. The final, maximal DMSO concentration that reached in the assay wells with the highest sample input (1.0%) was tolerated well by the cells. The assay plates were returned to the incubator at 37 °C (5.0% CO2) for four days. According to the manufacturers’ instructions (Promega, Leiden, The Netherlands), residual cell viability was then quantified by use of an MTS readout method.

[2] = Adverse effect on host cell metabolism (MTS method) in RD cells; format: cell-based; details: human, RD (rhabdomyosarcoma) cells, RD host cell metabolism reduced by 50%
Procedure: as §1, §2

[3] = Lipophilicity by shake-flask method with UV spectrometry; format: physicochemical; details: n-octane and water, 25 ± 1 °C, average of three independent experiments
Procedure: The log P values associated with the molecular lipophilicity of all hinged aromatic compounds with polynuclei were obtained by use of the ''shake-flask method'' [46]. The partition coefficient was measured as the ratio of the equilibrium concentrations of a dissolved hinged compound in a two-phase system consisting of n-octane and water, which are immiscible solvents. The temperature was kept constant at 25 ± 1 °C. The analytical method employed was UV spectrometry.

Row | EC50 [1] [µM] | logD hydrocarbon water [3] | melting point [°C] | Compound | SI (selectivity index = CC50/EC50) [1] | CC50 at 4 days [2] [µM]
1 | 11.6 ± 0.3 | 2.6 |  | O=C(c1ccc(-c2cccc(-c3cc[nH]n3)c2)o1)N1CCOCC1 [21a] |  | 
2 | 13 ± 2.5 | 2.87 |  | Cc1cc(-c2cccc(-c3ccc(C(=O)N4CCOCC4)o3)c2)n[nH]1 [21b, Morpholino-(5-[3-(5-methyl-1H-pyrazol-3-yl)phenyl]furan-2-yl)methanone] |  | 
3 |  | 3.92 |  | O=C(c1ccc(-c2cccc(-c3cc(-c4ccccc4)[nH]n3)c2)o1)N1CCOCC1 [21c, Morpholino-(5-[3-(5-phenyl-1H-pyrazol-3-yl)phenyl]furan-2-yl)methanone] |  | 4.13 ± 0.12
4 |  | 4.3 |  | Cc1ccc(-c2cc(-c3cccc(-c4ccc(C(=O)N5CCOCC5)o4)c3)n[nH]2)cc1 [21d, Morpholino[5-(3-[5-(p-tolyl)-1H-pyrazol-3-yl]phenyl)furan-2-yl]methanone] |  | 3.25 ± 0.3
5 | < 1.4 | 3.96 |  | COc1ccc(-c2cc(-c3cccc(-c4ccc(C(=O)N5CCOCC5)o4)c3)n[nH]2)cc1 [21e, Morpholino[5-(3-[5-(4-methoxyphenyl)-1H-pyrazol-3-yl]phenyl)furan-2-yl]methanone] |  | 2.09 ± 0.1
6 | < 1.28 | 4.33 |  | O=C(c1ccc(-c2cccc(-c3cc(-c4ccc(C(F)(F)F)cc4)[nH]n3)c2)o1)N1CCOCC1 [21f, Morpholino(5-[3-(5-[4-(trifluoromethyl)phenyl]-1H-pyrazol-3-yl)phenyl]furan-2-yl)-methanone] |  | 3.28 ± 0.11
7 | 241 ± 3 | 4.61 | 239.6 to 241.8 | O=C(c1ccc(-c2cccc(-c3cc(-c4ccccc4)[nH]n3)c2)s1)N1CCOCC1 [21g, Morpholino(5-[3-(5-phenyl-1H-pyrazol-3-yl)phenyl]thiophen-2-yl)methanone] |  | 
8 | 4.1 ± 0.12 | 4.64 |  | COc1ccc(-c2cc(-c3cccc(-c4ccc(C(=O)N5CCOCC5)s4)c3)n[nH]2)cc1 [21h, [5-(3-[5-(4-Methoxyphenyl)-1H-pyrazol-3-yl]phenyl)thiophen-2-yl](morpholino)methanone] | 10.2 | 41.9 ± 2.2
9 | 2.29 ± 0.1 | 5.04 |  | O=C(c1ccc(-c2cccc(-c3cc(-c4ccc(C(F)(F)F)cc4)[nH]n3)c2)s1)N1CCOCC1 [21i, Morpholino(5-[3-(5-[4-(trifluoromethyl)phenyl]-1H-pyrazol-3-yl)phenyl]thiophen-2-yl)-methanone] | 33.4 | 76.4 ± 3
10 | 223 ± 2 | 2.56 |  | Cn1c(C(=O)N2CCOCC2)ccc1-c1cccc(-c2cc[nH]n2)c1 [21j, Morpholino(5-[3-(1H-pyrazol-3-yl)phenyl]-1-methyl-1H-pyrrol-2-yl)methanone] |  | 

More lines, now with the values behind:

Row | Compound | EC50 [1] [µM] | logD hydrocarbon water [3] | melting point [°C] | SI (selectivity index = CC50/EC50) [1] | CC50 at 4 days [2] [µM]
11 | O=C(c1ccc(-c2cccc(-c3cc[nH]n3)c2)o1)N1CCCC1 [10a, (5-[3-(1H-Pyrazol-3-yl)phenyl]furan-2-yl)(pyrrolidin-1-yl)methanone] | 16.2 ± 1 | 3.42 |  | 7.30 | 119 ± 2
12 | O=C(c1ccc(-c2cccc(-c3cc[nH]n3)c2)o1)N1CCCCC1 [10b, Piperidin-1-yl(5-[3-(1H-pyrazol-3-yl)phenyl]furan-2-yl)methanone] | 2.14 ± 0.12 | 3.87 |  | 6.70 | 14.3 ± 1
13 | O=C(c1ccc(-c2cccc(-c3cc[nH]n3)c2)o1)N1CCCCCC1 [10c, Azepan-1-yl(5-[3-(1H-pyrazol-3-yl)phenyl]furan-2-yl)methanone] | 6.16 ± 0.15 | 4.22 |  | 13.1 | 81.1 ± 3
14 | O=C(Nc1ccc(F)cc1)c1ccc(-c2cccc(-c3cc[nH]n3)c2)o1 [12a, N-(4-Fluorophenyl)-5-[3-(1H-pyrazol-3-yl)phenyl]furan-2-carboxamide] | < 1.73 | 4.18 |  |  | 4.53 ± 0.1
15 | COc1ccc(NC(=O)c2ccc(-c3cccc(-c4cc[nH]n4)c3)o2)cc1 [12b, N-(4-Methoxyphenyl)-5-[3-(1H-pyrazol-3-yl)phenyl]-furan-2-carboxamide] | 2.41 ± 0.3 | 4.15 |  | 8.70 | 21 ± 1.5
16 | CCOC(=O)c1ccc(OCCC2CCN(c3ccc(C)nn3)CC2)cc1 [Pirodavir, reference compound] | 0.3 ± 0.1 |  |  |  | > 54
17 | O=C(NC1CC1)c1ccc(-c2cccc(-c3cc[nH]n3)c2)o1 [compound 13, N-Cyclopropyl-5-[3-(1H-pyrazol-3-yl)phenyl]furan-2-carboxamide] | 15.1 ± 1 | 3.25 |  |  | 
18 | COCCNC(=O)c1ccc(-c2cccc(-c3cc[nH]n3)c2)s1 [compound 14, N-(2-Methoxyethyl)-5-[3-(1H-pyrazol-3-yl)phenyl]thiophene-2-carboxamide] |  | 3.15 |  |  | 22.4 ± 2.5
19 | Cn1ccc(-c2cccc(-c3ccc(C(=O)N4CCOCC4)o3)c2)n1 [compound 23, Morpholino(5-[3-(1-methyl-1H-pyrazol-3-yl)phenyl]furan-2-yl)methanone] | 34.6 ± 1 | 2.75 |  |  | 
